The test has as its system Mycobacterium tuberculosis. The test is described as follows: Antimycobacterial activity against Mycobacterium bovis BCG after 28 days. As to conditions: variant bovis BCG, 672 h. The format is functional.

In brackets after ≈: the same amount, converted by molar mass.

Take `COc1ccc(-c2cc(-c3cc(OC)ccc3O)[nH]n2)cc1`: the MIC (usually the lowest concentration found to suppress growth) was 34 µM (≈ 10.1 µg/mL).

The values are drawn from ChEMBL document CHEMBL2375319, “Design, synthesis and structure-activity relationships of 3,5-diaryl-1H-pyrazoles as inhibitors of arylamine N-acetyltransferase” (Bioorg Med Chem Lett, 2013).
